Results published in patent US20070280929A1, “ADJUVANT IN THE FORM OF A LIPID-MODIFIED NUCLEIC ACID” (priority 2006, published 2007).

Legend:
[1] = test system: human PBMC cells; assay: TNF-α release by human PBMC cells after 16 h co-incubation, supernatants analysed by ELISA; assay type: cell-based; settings: FIG. 6, 10 μg/ml RNA oligonucleotides
Method: In order to determine the immunogenic activity of adjuvants according to the invention, such adjuvants in the form of a lipid-modified nucleic acid containing a sequence according to SEQ ID NO: 40, 41 or 42 were co-incubated with human cells. To this end, human PBMC cells, for example, containing RNA were co-incubated for 16 hours in X-vivo15 medium (BioWhittaker), enriched with 2 mM L-glutamine (BioWhittaker), 10 U/ml penicillin (BioWhittaker) and 10 μg/ml streptomycin, with 10 μg/ml of RNA (mRNA coding for β-galactosidase or phosphorothioate RNA oligonucleotide 40 5′ […] (SEQ ID NO: 40)) and optionally with 10 μg/ml protamine. The supernatants were removed and analysed by means of ELISA. […] When determining the TNFα release, a marked stimulation of the immune system can be detected, which is at least equal to that of β-galactosidase or RNA (see FIG. 5B).
In a further experiment, the release of TNF-α by human PBMC cells was determined after stimulation with RNA oligonucleotides used according to the invention and also adjuvants according to the invention.
To that end, human PBMC cells were co-incubated for 16 hours with 10 μg/ml of RNA oligonucleotides in X-vivo15 medium (BioWhittaker), enriched with 2 mM L-glutamine (BioWhittaker), 10 U/ml penicillin (BioWhittaker) and 10 μg/ml streptomycin. […] The supernatants were removed and analysed by means of ELISA. […]

[2] = test system: breast cancer cell lines; settings: various breast cancer cell lines; cited from earlier work

RNA oligo Toc CV2: tocopherol-modified sequence according to SEQ ID NO: 42 (5′-AAUGGAUAUGGAAUAUGGAA-3′, RNA CV2) (RNA, backbone not given here; tocopherol lipid conjugated)
increase in immune stimulation (TNF-α release) as compared with the unmodified RNA oligonucleotide [1]: more than 10 fold

Cc1c(C)c2c(c(C)c1OC(=O)CCC(=O)O)CC[C@@](C)(CCC[C@H](C)CCC[C@H](C)CCCC(C)C)O2 [VES, vitamin E succinate]
apoptosis [2]: induce apoptosis
